Measurements taken from patent US9708336B2, “Metallo-beta-lactamase inhibitors” (priority 2014, dated 2017).
pIC50: −log10 of the molar value. Where two headings read alike, the source gives them in different places.

Legend:
[1] = target: IMP-1 (Serratia marcescens, UniProt P52699); assay: biochemical; assay type: biochemical; conditions: read-out: IMP-1 IC50
[2] = target: NDM-1 (Klebsiella pneumoniae, UniProt C7C422); assay: biochemical; assay type: biochemical; conditions: read-out: NDM-1 IC50
NDM-1, sequence (C7C422 whole entry, looked up, species assumed): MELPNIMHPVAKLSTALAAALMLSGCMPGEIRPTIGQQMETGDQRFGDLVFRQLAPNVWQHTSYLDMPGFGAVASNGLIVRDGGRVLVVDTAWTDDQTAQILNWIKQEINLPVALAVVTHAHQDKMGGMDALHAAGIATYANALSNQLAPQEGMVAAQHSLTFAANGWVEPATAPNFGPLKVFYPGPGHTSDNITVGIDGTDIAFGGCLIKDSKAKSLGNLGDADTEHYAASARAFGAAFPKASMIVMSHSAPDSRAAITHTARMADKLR

[3] = target: VIM-1 (Pseudomonas aeruginosa (strain ATCC 15692 / DSM 22644 / CIP 104116 / JCM 14847 / LMG 12228 / 1C / PRS 101 / PAO1), UniProt A0A0F7KYQ8); assay: Enzyme activity: determination of IC50, fluorescence assay with CCF2-FA substrate (VIM-1); assay type: biochemical
[4] = test system: Escherichia coli expressing NDM-1 (CLB30016); assay: Antibiotic potentiation activity: synergistic concentration (MITC95) with imipenem, OD600 growth; assay type: cell-based; conditions: for Escherichia coli expressing NDM-1 (CLB 30016) MITC95: concentration giving 95% inhibition of bacterial growth
Summary of the method: (§1)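 Absorbance after a 22–24 h, 35 °C incubation served as the read-out. Wells held bacteria (saline suspension diluted 1:100 into 1.1× CAMHB), imipenem at 4 μg/ml final or optionally 1 μg/ml, and test compound.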

[5] = test system: Serratia marcescens expressing IMP-1 (CL5741); assay: as above; assay type: cell-based; conditions: for Serratia marcescens expressing IMP-1 (CL5741) MITC95: concentration giving 95% inhibition of bacterial growth
Summary of the method: as §1

[6] = test system: Klebsiella pneumoniae expressing VIM-1 (IHMA599644); assay: as above; assay type: cell-based; conditions: for Klebsiella pneumoniae expressing VIM-1 (IHMA 599644) MITC95: concentration giving 95% inhibition of bacterial growth
Summary of the method: as §1

[7] = IMP-1 enzyme, CCF2-FA substrate
[8] = NDM-1 enzyme, CCF2-FA substrate
[9] = (CLB30016, NDM-1), 95% growth inhibition
[10] = Serratia marcescens CL5741 (IMP-1), 95% growth inhibition
[11] = Klebsiella pneumoniae IHMA599644 (VIM-1), 95% growth inhibition
[12] = IMP-1 enzyme, CCF2-FA fluorescence assay
[13] = NDM-1 enzyme, CCF2-FA fluorescence assay
[14] = VIM-1 enzyme, CCF2-FA fluorescence assay, read-out: VIM-1 IC50
[15] = Escherichia coli expressing NDM-1 (CLB30016), 95% growth inhibition
[16] = Serratia marcescens expressing IMP-1 (CL5741), 95% growth inhibition
[17] = Klebsiella pneumoniae expressing VIM-1 (IHMA599644), 95% growth inhibition
[18] = VIM-1 enzyme, CCF2-FA substrate, read-out: VIM-1 IC50
[19] = fluorescence assay with CCF2-FA substrate
[20] = fluorescence assay with CCF2-FA substrate, read-out: VIM-1 IC50

IMP-1, sequence (P52699 whole entry, looked up): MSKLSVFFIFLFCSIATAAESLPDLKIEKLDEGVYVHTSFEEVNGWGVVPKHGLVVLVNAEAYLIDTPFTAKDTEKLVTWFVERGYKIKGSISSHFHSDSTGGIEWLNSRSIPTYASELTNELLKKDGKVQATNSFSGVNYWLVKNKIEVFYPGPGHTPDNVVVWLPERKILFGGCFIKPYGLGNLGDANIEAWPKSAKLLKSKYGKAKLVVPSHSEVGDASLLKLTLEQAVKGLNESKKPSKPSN

SMILES | pIC50 [1, 7] | pIC50 [2, 8] | Escherichia coli MITC95 [4, 9] | Serratia marcescens MITC95 [5, 10] | Klebsiella pneumoniae MITC95 [6, 11] | pIC50 [3, 18] | also measured
NS(=O)(=O)c1c(C(F)(F)F)ccc(-c2cnc3ncccn23)c1-c1nnn[nH]1 [Example 712, 3-imidazo[1,2-a]pyrimidin-3-yl-2-(1H-tetrazol-5-yl)-6-(trifluoromethyl)benzenesulfon-amide] | 6.90 | 7.23 | 25 µM | 100 µM | 50 µM |  | pIC50 ([3]; VIM-1 IC50, VIM-1 enzyme, CCF2-FA substrate): 7.87
Cc1ccc(C(F)(F)F)c(S(N)(=O)=O)c1-c1nnn[nH]1 [Example 487, 3-methyl-2-(1H-tetrazol-5-yl)-6-(trifluoromethyl)benzenesulfonamide] |  |  |  |  |  |  | pIC50 [1, 12]: 7.25; pIC50 [2, 13]: 6.99; pIC50 [3, 14]: 7.15; Escherichia coli MITC95 [4, 15]: 1.563 µM; Serratia marcescens MITC95 [5, 16]: 1.563 µM; Klebsiella pneumoniae MITC95 [6, 17]: 25 µM
NC(=O)c1nccc2cc(-c3cccc(S(N)(=O)=O)c3-c3nn[nH]n3)ccc12 [Example 281, 6-(3-sulfamoyl-2-(2H-tetrazol-5-yl)phenyl)isoquinoline-1-carboxamide] |  |  |  |  |  |  | pIC50 [1, 12]: 7.37; pIC50 [2, 13]: 9.47; pIC50 [3, 14]: 7.92; Escherichia coli MITC95 [4, 15]: 0.7813 µM; Serratia marcescens MITC95 [5, 16]: 3.125 µM; Klebsiella pneumoniae MITC95 [6, 17]: 12.5 µM
CN(C)C1CCN(c2ccc(-c3cccc(S(N)(=O)=O)c3-c3nnn[nH]3)cn2)C1 (stereo not drawn) [Example 627, 3-[6-[3-(dimethylamino)pyrrolidin-1-yl]-3-pyridyl]-2-(1H-tetrazol-5-yl)benzenesulfonamide] | 6.38 | 7.48 | 1.172 µM | 12.5 µM | 100 µM | 6.08 | 
Nc1ncc2cccc(-c3ccc(C(F)(F)F)c(S(N)(=O)=O)c3-c3nn[nH]n3)c2n1 [Example 558, 3-(2-aminoquinazolin-8-yl)-2-(2H-tetrazol-5-yl)-6-(trifluoromethyl)benzenesulfonamide] | 8.71 | 9.84 | 6.25 µM | 6.25 µM | 6.25 µM | 9.75 | 
NS(=O)(=O)c1c(C(F)(F)F)ccc(-c2ccc(N3CCNCC3)cc2)c1-c1nnn[nH]1 [Example 717, 4′-piperazin-1-yl-2-(1H-tetrazol-5-yl)-4-(trifluoromethyl)biphenyl-3-sulfonamide] | 8.58 | 8.79 | 1.563 µM | 3.125 µM | 3.125 µM | 9.22 | 
NS(=O)(=O)c1c(CC2CCNCC2)ccc(-c2ccc(C3CN(CCO)C3)cc2)c1-c1nn[nH]n1 [Example 608, 3-[4-[1-(2-hydroxyethyl)azetidin-3-yl]phenyl]-6-(4-piperidylmethyl)-2-(2H-tetrazol-5-yl)benzenesulfonamide] | 6.90 | 7.52 | 6.25 µM | 6.25 µM | 6.25 µM | 7.35 | 
NS(=O)(=O)c1c(C(F)(F)F)ccc(C2CCCC2)c1-c1nnn[nH]1 [Example 490, 3-cyclopentyl-2-(1H-tetrazol-5-yl)-6-(trifluoromethyl)benzenesulfonamide] |  |  |  |  |  |  | pIC50 [1, 12]: 8.25; pIC50 [2, 13]: 8.59; pIC50 [3, 14]: 8.63; Escherichia coli MITC95 [4, 15]: 1.281 µM; Serratia marcescens MITC95 [5, 16]: 0.375 µM; Klebsiella pneumoniae MITC95 [6, 17]: 9.375 µM
NS(=O)(=O)c1c(C(F)(F)F)ccc(-c2ccc(C3CCN(CC4CCNCC4)CC3)cc2)c1-c1nnn[nH]1 [Example 668, 4′-[1-(piperidin-4-ylmethyl)piperidin-4-yl]-2-(1H-tetrazol-5-yl)-4-(trifluoromethyl)biphenyl-3-sulfonamide] | 8.55 | 8.03 | 1.563 µM | 3.125 µM | 50 µM | 8.15 | 
Cn1c(-c2ccc(-c3ccc(C(F)(F)F)c(S(N)(=O)=O)c3-c3nnn[nH]3)cc2)cnc1N.O=C(O)C(F)(F)F [Example 560, 3-[4-(2-amino-3-methyl-imidazol-4-yl)phenyl]-2-(1H-tetrazol-5-yl)-6-(trifluoromethyl)benzenesulfonamide] | 9.05 | 9.14 | 6.25 µM | 3.125 µM | 6.25 µM | 9.67 | 
Nc1cc(-c2cccc(S(N)(=O)=O)c2-c2nn[nH]n2)cnc1N [Example 523, 3-(5,6-Diaminopyridin-3-yl)-2-(2H-tetrazol-5-yl)benzenesulfonamide] | 5.92 | 7.70 | 0.125 µM | 9.375 µM | 4.125 µM | 6.65 | 
Nc1ccc(-c2ccc(C[C@H]3CC[C@H](N)CC3)c(S(N)(=O)=O)c2-c2nnn[nH]2)cn1 [Example 575, 6-(((1r,4r)-4-aminocyclohexyl)methyl)-3-(6-aminopyridin-3-yl)-2-(1H-tetrazol-5-yl)benzenesulfonamide] | 7.23 | 8.50 | 0.3906 µM | 3.125 µM | 6.25 µM | 8.16 | 
NS(=O)(=O)c1nccc(NCCC2CCCCC2)c1-c1nnn[nH]1 [Example 236, 4-[(2-cyclohexylethyl)amino]-3-(1H-tetrazol-5-yl)pyridine-2-sulfonamide] |  |  |  |  |  |  | pIC50 [1, 19]: 6.65; pIC50 [2, 19]: 7.41; pIC50 [3, 20]: 6.73; Escherichia coli expressing NDM-1 (CLB 30016) MITC95 [4]: 18.75 µM; Serratia marcescens expressing IMP-1 (CL5741) MITC95 [5]: 25 µM; Klebsiella pneumoniae expressing VIM-1 (IHMA 599644) MITC95 [6]: >200 µM
NCCC1CCC(N[C@H]2CC[C@H](c3ccc(C(F)(F)F)c(S(N)(=O)=O)c3-c3nnn[nH]3)CC2)CC1 (stereo partly drawn) [Example 705, 3-(4-{[4-(2-aminoethyl)cyclohexyl]a-mino}cyclohexyl)-2-(1H-tetrazol-5-yl)-6-(trifluoromethyl)benzene sulfonamide] | 7.21 | 7.74 | 2.344 µM | 4.688 µM | 12.5 µM | 8.24 | 
NS(=O)(=O)c1c(C(F)(F)F)ccc(-c2cnc3[nH]ccc3c2)c1-c1nnn[nH]1 [Example 708, 3-(1H-pyrrolo[2,3-b]pyridin-5-yl)-2-(1H-tetrazol-5-yl)-6-(trifluoromethyl)benzenesulfon-amide] | 8.80 | 9.42 | 1.563 µM | 6.25 µM | 6.25 µM | 9.84 | 
NS(=O)(=O)c1nccc(N2CCC(c3ccncc3)CC2)c1-c1nnn[nH]1 [Example 217, 4-(4-pyridin-4-ylpiperidin-1-yl)-3-(1H-tetrazol-5-yl)pyridine-2-sulfonamide] |  |  |  |  |  |  | pIC50 [1, 19]: 6.32; pIC50 [2, 19]: 7.37; pIC50 ([3]; VIM-1 IC50, fluorescence assay with CCF2-FA substrate): 7.31; Escherichia coli expressing NDM-1 (CLB 30016) MITC95 [4]: 4.688 µM; Serratia marcescens expressing IMP-1 (CL5741) MITC95 [5]: 12.5 µM; Klebsiella pneumoniae expressing VIM-1 (IHMA 599644) MITC95 [6]: 150 µM
NS(=O)(=O)c1c(C(F)(F)F)ccc(-c2ccc(C3CN(C4CC5(CCNCC5)C4)C3)cc2)c1-c1nnn[nH]1 [Example 805, 4′-[1-(7-azaspiro[3.5]non-2-yl)azetidin-3-yl]-2-(1H-tetrazol-5-yl)-4-(trifluoromethyl)biphenyl-3-sulfonamide] |  |  |  |  |  |  | pIC50 [1, 19]: 8.12; pIC50 [2, 19]: 8.42; pIC50 [3, 20]: 7.71; Escherichia coli MITC95 ([4]; CLB30016 (NDM-1), 95% inhibition of bacterial growth): 3.125 µM; Serratia marcescens MITC95 ([5]; CL5741 (IMP-1), 95% inhibition of bacterial growth): 6.25 µM; Klebsiella pneumoniae MITC95 ([6]; IHMA599644 (VIM-1), 95% inhibition of bacterial growth): 50 µM
NCCNc1nc2c(-c3cccc(S(N)(=O)=O)c3-c3nn[nH]n3)cccc2s1 [Example 639, 3-[2-(2-aminoethylamino)-1,3-benzothiazol-4-yl]-2-(2H-tetrazol-5-yl)benzenesulfonamide] | 6.73 | 8.70 | 1.563 µM | 25 µM | 6.25 µM | 7.98 | 
Nc1ccc(CCc2cccc(S(N)(=O)=O)c2-c2nn[nH]n2)cn1 [Example 427, 3-(2-(6-aminopyridin-3-yl)ethyl)-2-(2H-tetrazol-5-yl)benzenesulfonamide] |  |  |  |  |  |  | pIC50 [1, 12]: 6.96; pIC50 [2, 13]: 7.53; pIC50 [3, 14]: 6.35; Escherichia coli MITC95 [4, 15]: 0.25 µM; Serratia marcescens MITC95 [5, 16]: 4.688 µM; Klebsiella pneumoniae MITC95 [6, 17]: 75 µM
